Experimental data published in article PMC12442448, “A third type of PETase from the marine Halopseudomonas lineage” (Protein Science : A Publication of the Protein Society, 2025).

Target: T1, HaloPETase1 (Halopseudomonas pachastrellae, UniProt A0A1S8DDV9)
T1 construct: gene BXT89_15940; N-terminal signal peptide removed; N-10xHis-SUMO tag cut with SenP2 (tag kept in agar-plate screen); extra N-terminal Ser and C-terminal Ala from FX cloning; E. coli Shuffle T7
T1 sequence (A0A1S8DDV9 24-289): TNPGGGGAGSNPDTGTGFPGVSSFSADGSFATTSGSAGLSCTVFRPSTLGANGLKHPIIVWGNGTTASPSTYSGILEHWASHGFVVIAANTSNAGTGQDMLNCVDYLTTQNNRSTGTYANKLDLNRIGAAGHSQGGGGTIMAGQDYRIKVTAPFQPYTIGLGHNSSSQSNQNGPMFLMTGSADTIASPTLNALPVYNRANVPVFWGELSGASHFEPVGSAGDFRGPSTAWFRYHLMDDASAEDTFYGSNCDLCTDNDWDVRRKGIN
Test: absorbance at […] nm, initial rate (residual activity assay)
Assay type: biochemical
Details: 1 mM substrate, 20 mM NaPi, pH 7.4, 150 mM NaCl, 1% DMSO; tag removed

CCCC(=O)Oc1ccc([N+](=O)[O-])cc1 [para‐nitrophenyl butyrate]
absorbance at 405 nm, initial rate (residual activity assay): the residual activity was measured by a para‐nitrophenyl butyrate (pNPB) assay
